According to PubChem BioAssay (NCI):
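Exposure lasted 48 hours, with cells grown in 96-well plates and compounds tested at five concentrations. GI50 = concentration required for 50% inhibition of growth. TGI marks complete inhibition of growth.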

Key:
Test in all cases: inhibition of tumour cell growth, NCI panel, 48 h
ACHN renal = tested on: ACHN renal
MALME-3M melanoma = tested on: MALME-3M melanoma
MOLT-4 leukemia = tested on: MOLT-4 leukemia
OVCAR-8 ovarian = tested on: OVCAR-8 ovarian
RXF 393 renal = tested on: RXF 393 renal
SF-268 CNS = tested on: SF-268 CNS
SK-MEL-2 melanoma = tested on: SK-MEL-2 melanoma
UACC-62 melanoma = tested on: UACC-62 melanoma
LOX IMVI melanoma = tested on: LOX IMVI melanoma
OVCAR-4 ovarian = tested on: OVCAR-4 ovarian

Compound	TGI (ACHN renal)	TGI (MALME-3M melanoma)	TGI (MOLT-4 leukemia)	TGI (OVCAR-8 ovarian)	TGI (RXF 393 renal)	TGI (SF-268 CNS)	TGI (SK-MEL-2 melanoma)	TGI (UACC-62 melanoma)	TGI (LOX IMVI melanoma)	TGI (OVCAR-4 ovarian)	GI50 (ACHN renal)	GI50 (MALME-3M melanoma)	GI50 (MOLT-4 leukemia)	GI50 (OVCAR-8 ovarian)	GI50 (RXF 393 renal)	GI50 (SF-268 CNS)	GI50 (SK-MEL-2 melanoma)	GI50 (UACC-62 melanoma)	GI50 (LOX IMVI melanoma)	GI50 (OVCAR-4 ovarian)
Clc1cc(Cl)cc(C2SCc3nc4ccccc4n32)c1 (stereo unspecified)	69 µM	62.6 µM	57.2 µM	33.2 µM	28.2 µM	59.3 µM	46.1 µM	> 100 µM												
N#Cc1c(N)n(C2OC(CO)C(O)C2O)c2ncnc(N)c12 (stereo unspecified)	0.417 µM	0.161 µM	0.163 µM	0.279 µM	1.33 µM	1.81 µM		0.0941 µM	0.0595 µM	> 100 µM										
Clc1cc2nc[nH]c2cc1Cl	> 100 µM	> 100 µM	> 100 µM	> 100 µM		> 100 µM	> 100 µM	> 100 µM	> 100 µM	> 100 µM										
CCOC(=O)NC(=O)c1cn(CC(=O)NCC(=O)NCC(=O)N2CCN(CCn3c(C)nc(C(N)=O)c3N)CC2)c(=O)[nH]c1=O	> 100 µM	> 100 µM	> 100 µM	> 100 µM		> 100 µM	> 100 µM	> 100 µM	> 100 µM											
O=C1C2c3[nH]c4ccccc4c3C3CCC(c4ccccc4)CC3C2C(=O)N1c1ccccc1 (stereo unspecified)	> 100 µM	> 100 µM	> 100 µM	> 100 µM	> 100 µM	> 100 µM		> 100 µM	> 100 µM	> 100 µM										
CN(C)C(=O)C(NCCO)c1ccccc1 (stereo unspecified)	> 100 µM		> 100 µM	> 100 µM	> 100 µM	> 100 µM	> 100 µM	> 100 µM	> 100 µM	> 100 µM										
O=C(NCCN1CCOCC1)Nc1nc2ccc(Sc3nnc4ccc(-c5ccc(F)cc5)nn34)cc2s1	> 100 µM	> 21.1 µM	> 100 µM	> 100 µM		> 100 µM	> 91.2 µM	21.4 µM	> 42.3 µM		> 90.8 µM	3.12 µM	> 100 µM	> 100 µM	0.522 µM	> 23.3 µM	> 44.3 µM	6.16 µM		
CCCCN1C(=O)C2c3[nH]c4ccccc4c3C3CCCCC3C2C1=O (mixture of isomers)	27.7 µM		19.4 µM	58.8 µM		48.4 µM		79.3 µM	24.1 µM	8.22 µM										
NNC(=O)C(O)C(O)C(O)CO (stereo unspecified)	> 100 µM	> 100 µM		> 100 µM	> 100 µM	> 100 µM	> 100 µM	> 100 µM	> 100 µM	> 100 µM										
OCC(O)C(O)C(O)c1nn[nH]n1 (stereo unspecified)	> 100 µM	> 100 µM	> 100 µM	> 100 µM		> 100 µM	> 100 µM	> 100 µM	> 100 µM	> 100 µM										
C[C@]12CC/C(=N\O)C[C@@H]1CC[C@@H]1[C@@H]2CC[C@]2(C)/C(=N/O)CC[C@@H]12	> 100 µM		> 100 µM	> 100 µM	71.4 µM		97 µM	> 100 µM	50.7 µM	> 100 µM	50.1 µM		64.4 µM	45.2 µM	34.1 µM		32.9 µM	35.6 µM	21.3 µM	56.8 µM
C[C@]12CC[C@H](OC(=O)Cc3ccc(N(CCCl)CCCl)cc3)CC1CC[C@@H]1C2CC[C@]2(C)NC(=O)CCC12 (stereo partly specified)	27.7 µM	35.7 µM	15.6 µM		24.3 µM	33 µM	48.7 µM	21.4 µM	27.2 µM	28.9 µM										
CC(C)(C)c1cc(O)c2c(c1O)C(=O)CCC2	> 100 µM		53.8 µM	> 100 µM	90.4 µM			80.5 µM	> 100 µM	> 100 µM										
Cc1cc(C)nc(NS(=O)(=O)c2ccc(Nc3nc4nc(NCc5ccccc5)nc(-c5ccc(O)cc5)c4c(=O)[nH]3)cc2)n1	> 100 µM	> 100 µM	12.8 µM	> 100 µM		> 100 µM	> 100 µM	> 100 µM	> 100 µM	> 100 µM	29.6 µM	32.8 µM	2.38 µM	36.5 µM		18 µM	20.7 µM	25.2 µM	25.2 µM	32.1 µM
CC1=CC[C@@H]2[C@@H](CC[C@@]2(C)O)C(C)(C)[C@H]1CC[C@@H]1[C@@]2(C)CC[C@@H](O)C(C)(C)O[C@@H]2CC[C@]1(C)O	58.7 µM		47.5 µM				> 100 µM	31.9 µM	29.8 µM	> 100 µM										
CN(C(=N)c1ccccc1)c1ccccc1			> 100 µM	> 100 µM			> 100 µM	> 100 µM	> 100 µM	> 100 µM										
O=S1(=O)OCc2ccccc21	> 100 µM	> 100 µM	78.9 µM	> 100 µM	> 100 µM	> 100 µM	> 100 µM	> 100 µM		> 100 µM										
Nc1nc2ccccc2c2[nH]c3ccccc3c12	1.79 µM	3.19 µM		2.16 µM	1.48 µM	7.23 µM	2.88 µM	27.3 µM	2.28 µM	3.52 µM	0.485 µM	1.61 µM		0.985 µM	0.311 µM	1.97 µM	1.54 µM	13.6 µM	1.05 µM	1.5 µM
Cc1c(C)n(CC(O)CNC2CCCCC2C)c2ccccc12 (stereo unspecified)	26 µM	30.1 µM	41.2 µM	31.2 µM	23 µM	30.2 µM		29 µM	28 µM	24.4 µM	13.3 µM	14.2 µM	15.3 µM	16.2 µM	10.5 µM	15.4 µM		14.8 µM	14.8 µM	12 µM
C/C(=N\NC(=O)C[n+]1ccccc1)c1sc(-c2nc(C)c(/C(C)=N/NC(=O)C[n+]3ccccc3)s2)nc1C	> 100 µM	> 100 µM	> 100 µM	> 100 µM	> 100 µM	> 100 µM	> 100 µM	> 100 µM	> 100 µM											
COc1ccc(C(=C(C#N)C#N)c2ccc(OC)cc2)cc1	> 100 µM		> 100 µM	> 100 µM	> 100 µM	> 100 µM	> 100 µM	> 100 µM	> 100 µM	> 100 µM										
C=CC1CC12C(=O)C1OC2(C)C2C(=O)c3c(O)cccc3C(=O)C12 (stereo unspecified)	46.6 µM	54.5 µM	> 100 µM	> 100 µM	41.1 µM	> 100 µM	> 100 µM				20.1 µM	17.1 µM	23.6 µM	37.8 µM	13.1 µM	30.5 µM	50 µM			
CCCCCCCC(=O)SCC/C=C/[C@@H]1CC(=O)NCc2cccc(n2)C2=N[C@@](C)(CS2)C(=O)N[C@@H](C(C)C)C(=O)O1	0.693 µM		> 33.3 µM	> 33.3 µM	0.207 µM	> 28 µM	0.881 µM	0.128 µM	0.193 µM	> 33.3 µM	0.0897 µM		0.0702 µM	0.0253 µM	0.0534 µM	0.0986 µM	0.0369 µM	0.0175 µM	0.0501 µM	0.15 µM
N#CC1=C(c2ccccc2)NN(Cc2ccccc2)C(c2ccc(Cl)cc2)CC1=O (stereo unspecified)	> 100 µM		> 100 µM		98.2 µM	> 100 µM	> 100 µM		41.8 µM	75.9 µM										
O=C1C[C@@H]2[C@@H](C=CC23CC3)N1O		> 100 µM	> 100 µM	> 100 µM	> 100 µM	> 100 µM	> 100 µM	> 100 µM	> 100 µM	> 100 µM										
COC1=CC(=O)c2c(O)c3c(c(O)c2C1=O)OC1(Oc2c(cc4cc(C)oc(=O)c4c2O)CC1O)C3O (stereo unspecified)	> 100 µM	10.3 µM	> 100 µM	> 100 µM		> 100 µM	> 100 µM	> 100 µM	> 100 µM	67.5 µM										
CC(=O)CC(=O)ON(C)C(C)=O	> 100 µM	> 100 µM	> 100 µM	> 100 µM	> 100 µM	> 100 µM		> 100 µM	> 100 µM	89.1 µM										
COc1ccc(-c2c(-c3cc4c(c(OC)c3OC)OCO4)noc2N)cc1	> 100 µM		> 100 µM	> 56.1 µM		> 95.8 µM		> 100 µM	> 100 µM	> 100 µM	1.43 µM		0.621 µM	0.455 µM		0.745 µM	0.235 µM	0.534 µM	0.48 µM	0.671 µM
O=C1C2=C(C(=O)c3c(O)ccc(O)c31)N(c1cccnc1)Cc1ccccc1O2	0.195 µM	0.385 µM		3.43 µM	0.367 µM	2 µM	4.78 µM	0.396 µM	0.56 µM		0.0612 µM	0.164 µM	0.21 µM	0.552 µM	0.182 µM	0.65 µM	1.54 µM	0.183 µM	0.127 µM	
